Consider 25 molecules from US9573887B2, “Naphthalene derivative” (Daito Chemix Corporation, priority 2010, dated 2017).

The term IC50 denotes the concentration needed to halve the response being measured.

Each structure is given as a SMILES string. Structures can show the parent of a compound that is named as a salt.

For the assay, the target named is T1, Mouse VCP (Mus musculus, UniProt Q01853).
T1 construct: histidine tag (N); made in house; host or cells: Sf-9 insect cells (baculovirus vector pVL1392)
T1 sequence (Q01853 whole entry): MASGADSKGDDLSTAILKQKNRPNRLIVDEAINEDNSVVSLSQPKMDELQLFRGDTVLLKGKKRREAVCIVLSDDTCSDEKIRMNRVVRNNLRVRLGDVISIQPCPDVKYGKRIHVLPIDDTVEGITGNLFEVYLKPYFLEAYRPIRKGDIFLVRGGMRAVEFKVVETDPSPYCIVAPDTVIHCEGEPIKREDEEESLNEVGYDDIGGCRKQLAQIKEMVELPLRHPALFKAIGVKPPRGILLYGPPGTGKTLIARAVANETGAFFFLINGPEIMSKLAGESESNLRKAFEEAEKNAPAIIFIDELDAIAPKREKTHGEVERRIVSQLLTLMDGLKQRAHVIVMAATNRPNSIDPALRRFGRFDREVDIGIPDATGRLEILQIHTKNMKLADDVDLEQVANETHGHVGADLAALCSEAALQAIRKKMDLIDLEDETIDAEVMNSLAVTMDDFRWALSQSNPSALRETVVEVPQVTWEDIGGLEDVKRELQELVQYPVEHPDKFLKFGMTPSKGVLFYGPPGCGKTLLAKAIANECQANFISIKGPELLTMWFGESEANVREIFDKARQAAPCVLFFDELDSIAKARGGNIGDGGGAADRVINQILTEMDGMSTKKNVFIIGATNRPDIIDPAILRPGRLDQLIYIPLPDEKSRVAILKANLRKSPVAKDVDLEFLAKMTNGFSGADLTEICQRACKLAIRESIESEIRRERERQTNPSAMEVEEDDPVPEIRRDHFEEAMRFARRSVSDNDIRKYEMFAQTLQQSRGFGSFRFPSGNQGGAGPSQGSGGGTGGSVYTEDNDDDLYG
Description: ATPase activity of purified His-tagged VCP, [γ-32P]ATP, liberated phosphate by liquid scintillation. The format is biochemical. The settings on record: compounds of Examples; ATPase inhibitory activity; 500 ng VCP, 100 μM ATP, 37° C., 10 minutes. The protocol: In one aspect, the effect of VCP regulators for regulating ATPase activity is determined, for example by the following exemplary assay. Mouse VCP cDNA (the amino acid sequence is completely identical among mouse, rat and human) is added with a DNA sequence corresponding to a histidine tag at the amino-terminal, subcloned into a baculovirus vector pVL1392 (BD Bioscience), and expressed in Sf-9 insect cells. The protein is purified with a nickel column. After the purification the concentration of the protein is adjusted to 0.25-0.5 μg/ml and the protein is stored in a solution containing 50 mM TrisCl pH 8.0, 5 mM EDTA, 10% glycerol, and 15 mM DTT at 4° C. 500 ng of the purified VCP is mixed with 100 μM [γ-^32P]ATP (18.5 GBq/mmol) and the test substance in 20 μL of ATPase buffer (20 mM HEPES (pH7.4), 50 mM KCl, 5 mM MgCl2, 15 mM DTT), and incubated at 37° C. for 10 minutes. The enzyme reaction is stopped with addition of 200 μL of an ice-cold solution containing 7% TCA and 1 mM K2HPO4. 50μ of a solution containing 3.75% ammonium molybdate and 0.02M tungstate silicic/3 N H2SO4 is added, followed by 300 μL of n-butylacetic acid, and then the liberated phosphate is extracted into the organic layer. The reaction tube is centrifuged for 5 minutes at 20,000 g to separate the aqueous layer and the organic layer, 200 μL of the organic layer is taken, and the beta ray radiated from the liberated phosphate is quantified with liquid scintillation counter. By measuring the ATPase activity in the presence of the test substance at various concentrations, ATPase inhibitory activity of the test substance is measured.
Mouse VCP cDNA was added with a DNA sequence corresponding to histidine tag at the amino-terminal, subcloned into a baculovirus vector pVL1392 (BD Bioscience), and expressed in Sf-9 insect cells. The protein was purified with a nickel column (GE Healthcare). The concentration of the protein was adjusted to 0.25-0.5 μg/ml and the protein was stored in a solution containing 50 mM TrisCl pH 8.0, 5 mM EDTA, 10% glycerol, and 15 mM DTT.
The ATPase activity was determined as follows. 500 ng of the purified VCP was mixed with 100 μM [γ-32P]ATP (18.5 GBq/mmol) and the test substance in 20 μL of ATPase buffer (20 mM HEPES (pH7.4), 50 mM KCl, 5 mM MgCl2, 15 mM DTT), and incubated at 37° C. for 10 minutes.
The enzyme reaction was stopped with addition of 200 μL of an ice-cold solution containing 7% TCA and 1 mM K2HPO4. 50μ of a solution containing 3.75% ammonium molybdate and 0.02M tungstate silicic/3 NH2SO4 was added, followed by 300 μL of n-butylacetic acid, and then the liberated phosphate was extracted into the organic layer. The reaction tube was centrifuged for 5 minutes at 20,000 g to separate the aqueous layer and the organic layer, 200 μL of the organic layer was taken, and the beta ray radiated from the liberated phosphate was quantified with liquid scintillation counter.
By measuring the ATPase activity in the presence of the test substance at various concentrations, ATPase inhibitory activity of the test substance was measured. IC50 of the each test substance was calculated by applying the measured values to the equation below using GraphPad Prism (GraphPad Software).
Take `Nc1c(/N=N/c2ccc(-c3cccnc3)nc2-c2cccnc2)cc(S(=O)(=O)O)c2ccccc12` [Example 54, 4-amino-3-([3,2′;6′,3″]terpyridine-3′-ylazo)naphthalene-1-sulfonic acid sodium salt]: the IC50 is 1.06 µM.

With `CCCOc1ccc(F)cc1-c1ccc(/N=N/c2cc(S(=O)(=O)O)c3ccccc3c2N)cn1` [Example 55, 4-amino-3-[6-(5-fluoro-2-propoxyphenyl)pyridine-3-ylazo]naphthalene-1-sulfonic acid sodium salt], the IC50 was determined as 0.139 µM.

As to `CCCOc1cccc(F)c1-c1ccc(/N=N/c2cc(S(=O)(=O)O)c3ccccc3c2N)cn1` [Example 56, 4-amino-3-[6-(2-fluoro-6-propoxyphenyl)pyridine-3-ylazo]naphthalene-1-sulfonic acid sodium salt], the IC50 stood at 0.246 µM.

For `CCCOc1cc(F)ccc1-c1ccc(/N=N/c2cc(S(=O)(=O)O)c3ccccc3c2N)cn1` [Example 57, 4-amino-3-[6-(4-fluoro-2-propoxyphenyl)pyridine-3-ylazo]naphthalene-1-sulfonic acid sodium salt], the IC50 stood at 1.39 µM.

Consider `Cc1ccc(F)cc1-c1ccc(/N=N/c2cc(S(=O)(=O)O)c3ccccc3c2N)cn1` [Example 58, 4-amino-3-[6-(5-fluoro-2-methylphenyl)pyridine-3-ylazo]naphthalene-1-sulfonic acid sodium salt], for which the IC50 was 0.32 µM.

Take `Cc1ccc(F)c(-c2ccc(/N=N/c3cc(S(=O)(=O)O)c4ccccc4c3N)cn2)c1` [Example 59, 4-amino-3-[6-(2-fluoro-5-methylphenyl)pyridine-3-ylazo]naphthalene-1-sulfonic acid sodium salt]: the IC50 worked out at 0.38 µM.

As for `CCCCOc1ccccc1-c1ccc(/N=N/c2cc(S(=O)(=O)O)c3ccccc3c2N)cn1` [Example 60, 4-amino-3-[6-(2-butoxyphenyl)pyridine-3-ylazo]naphthalene-1-sulfonic acid sodium salt], the IC50 came to 0.25 µM.

Turning to `CCCCCCOc1ccccc1-c1ccc(/N=N/c2cc(S(=O)(=O)O)c3ccccc3c2N)cn1` [Example 61, 4-amino-3-[6-(2-hexyloxyphenyl)pyridine-3-ylazo]naphthalene-1-sulfonic acid sodium salt], the IC50 came out at 0.843 µM.

For `CCCCc1ccc(-c2ccc(/N=N/c3cc(S(=O)(=O)O)c4ccccc4c3N)cn2)cc1` [Example 62, 4-amino-3-[6-(4-butylphenyl)pyridine-3-ylazo]naphthalene-1-sulfonic acid sodium salt], the IC50 came out at 0.856 µM.

For `Nc1c(/N=N/c2ccc(-c3ccccc3O)nc2)cc(S(=O)(=O)O)c2ccccc12` [Example 63, 4-amino-3-[6-(2-hydroxyphenyl)pyridine-3-ylazo]naphthalene-1-sulfonic acid sodium salt], the IC50 worked out at 0.807 µM.

Regarding `Nc1c(/N=N/c2ccc(-c3ccccc3OCCCCCCO)nc2)cc(S(=O)(=O)O)c2ccccc12` [Example 64, 4-amino-3-{6-[2-(6-hydroxyhexyloxy)phenyl]pyridine-3-ylazo}naphthalene-1-sulfonic acid sodium salt], the IC50 is 0.324 µM.

With `Nc1c(/N=N/c2ccc(-c3ccccc3OCCCO)nc2)cc(S(=O)(=O)O)c2ccccc12` [Example 66, 4-amino-3-{6-[2-(3-hydroxypropoxy)phenyl]pyridine-3-ylazo}naphthalene-1-sulfonic acid sodium salt], the IC50 came to 0.232 µM.

Consider `CC(C)COc1ccccc1-c1ccc(/N=N/c2cc(S(=O)(=O)O)c3ccccc3c2N)cn1` [Example 67, 4-amino-3-[6-(2-isobutoxyphenyl)pyridine-3-ylazo]naphthalene-1-sulfonic acid sodium salt], for which the IC50 turned out to be 0.13 µM.

As for `CC(C)(C)OC(=O)NCCCOc1ccccc1-c1ccc(/N=N/c2cc(S(=O)(=O)O)c3ccccc3c2N)cn1` [Example 68, 4-amino-3-{6-[2-(3-tert-butoxycarbonylaminopropoxy)phenyl]pyridine-3-ylazo}naphthalene-1-sulfonic acid sodium salt], the IC50 is 0.201 µM.

As for `Nc1c(/N=N/c2ccc(-c3ccccc3OCCCNC(=O)c3cccnc3Cl)nc2)cc(S(=O)(=O)O)c2ccccc12` [Example 69, 4-amino-3-[6-(2-{3-[(2-chloropyridine-3-carbonyl)amino]propoxy}phenyl)pyridine-3-ylazo]naphthalene-1-sulfonic acid sodium salt], the IC50 was 0.09 µM.

Take `Nc1c(/N=N/c2ccc(-c3cc(Cl)ccc3O)nc2)cc(S(=O)(=O)O)c2ccccc12` [Example 70, 4-amino-3-[6-(5-chloro-2-hydroxyphenyl)pyridine-3-ylazo]naphthalene-1-sulfonic acid sodium salt]: the IC50 worked out at 0.712 µM.

Turning to `Cc1ccc(-c2ccccc2)c(-c2ccc(/N=N/c3cc(S(=O)(=O)O)c4ccccc4c3N)cn2)c1` [Example 71, 4-amino-3-[6-(4-methylbiphenyl-2-yl)pyridine-3-ylazo]naphthalene-1-sulfonic acid sodium salt], the IC50 was 0.257 µM.

For `Cc1ccc(-c2ccc(Cl)cc2)c(-c2ccc(/N=N/c3cc(S(=O)(=O)O)c4ccccc4c3N)cn2)c1` [Example 72, 4-amino-3-[6-(4′-chloro-4-methylbiphenyl-2-yl)pyridine-3-ylazo]naphthalene-1-sulfonic acid sodium salt], the IC50 is 0.796 µM.

Regarding `Nc1c(/N=N/c2ccc(-c3cccc4c3S(=O)(=O)c3ccccc3-4)nc2)cc(S(=O)(=O)O)c2ccccc12` [Example 73, 4-amino-3-[6-(5,5-dioxo-5H-5λ^6-dibenzothiophene-4-yl)pyridine-3-ylazo]naphthalene-1-sulfonic acid sodium salt], the IC50 was found to be 0.499 µM.

Regarding `Cc1cc(C)cc(-c2ccc(C)cc2-c2ccc(/N=N/c3cc(S(=O)(=O)O)c4ccccc4c3N)cn2)c1` [Example 74, 4-amino-3-[6-(4,3′,5′-trimethylbiphenyl-2-yl)pyridine-3-ylazo]naphthalene-1-sulfonic acid sodium salt], the IC50 was 4 µM.

Turning to `Cc1ccc(-c2cccc(Cl)c2)c(-c2ccc(/N=N/c3cc(S(=O)(=O)O)c4ccccc4c3N)cn2)c1` [Example 75, 4-amino-3-[6-(3′-chloro-4-methylbiphenyl-2-yl)pyridine-3-ylazo]naphthalene-1-sulfonic acid sodium salt], the IC50 stood at 0.924 µM.

Take `Nc1c(/N=N/c2ccc(-c3cccc4c3Sc3ccccc3S4)nc2)cc(S(=O)(=O)O)c2ccccc12` [Example 76, 4-amino-3-(6-thianthrene-1-ylpyridine-3-ylazo)naphthalene-1-sulfonic acid sodium salt]: the IC50 worked out at 1.41 µM.

For the molecule `Nc1c(/N=N/c2ccc(-c3ccccc3OCCCNC(=O)c3ccnc(Cl)c3)nc2)cc(S(=O)(=O)O)c2ccccc12` [Example 77, 4-amino-3-[6-(2-{3-[(2-chloropyridine-4-carbonyl)amino]propoxy}phenyl)pyridine-3-ylazo]naphthalene-1-sulfonic acid sodium salt], the 50% inhibitory concentration (IC50) was 0.366 µM.

`Nc1c(/N=N/c2ccc(-c3ccccc3OCCCN3C(=O)c4ccccc4C3=O)nc2)cc(S(=O)(=O)O)c2ccccc12` [Example 78, 4-amino-3-(6-{2-[3-(1,3-dioxo-1,3-dihydroisoindole-2-yl)propoxy]phenyl}pyridine-3-ylazo)naphthalene-1-sulfonic acid sodium salt]: the IC50 is 0.402 µM.

As for `Cc1cc(F)ccc1-c1ncc(/N=N/c2cc(S(=O)(=O)O)c3ccccc3c2N)cc1C` [Example 79, 4-amino-3-[6-(4-fluoro-2-methylphenyl)-5-methylpyridine-3-ylazo]naphthalene-1-sulfonic acid sodium salt], the IC50 stood at 0.798 µM.
